Measurements from ChEMBL document CHEMBL1201862, “PubChem BioAssay data set” (2004).
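How tested: cells in 96-well plates exposed to compound for 48 hours at five concentrations. GI50 = concentration required for 50% inhibition of growth.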 Active and inactive are the calls of the source. Cut-off read from the data, not from the text of the source: active = GI50 up to about 1.1 µM and inactive = higher.

Key:
Experiment in all cases: NCI anticancer screen, dose series, 48 h
HT-29 = test system: HT-29
OVCAR-5 = test system: OVCAR-5
UACC-62 = test system: UACC-62
SNB-78 = test system: SNB-78
UACC-257 = test system: UACC-257
SN12C = test system: SN12C
SK-OV-3 = test system: SK-OV-3
HOP-18 = test system: HOP-18
MOLT-4 = test system: MOLT-4
LOX IMVI = test system: LOX IMVI
NCI-H522 = test system: NCI-H522
SF-268 = test system: SF-268
EKVX = test system: EKVX
OVCAR-4 = test system: OVCAR-4
OVCAR-8 = test system: OVCAR-8
HOP-92 = test system: HOP-92
M19-MEL = test system: M19-MEL
SW-620 = test system: SW-620
SK-MEL-28 = test system: SK-MEL-28
U-251 = test system: U-251
786-0 = test system: 786-0
IGROV-1 = test system: IGROV-1
SF-295 = test system: SF-295
KM-20L2 = test system: KM-20L2
COLO 205 = test system: COLO 205
HCT-15 = test system: HCT-15
SK-MEL-5 = test system: SK-MEL-5
NCI-H460 = test system: NCI-H460
DMS-114 = test system: DMS-114
SK-MEL-2 = test system: SK-MEL-2
M14 = test system: M14
ACHN = test system: ACHN
TK-10 = test system: TK-10
SNB-75 = test system: SNB-75
HOP-62 = test system: HOP-62
HCT-116 = test system: HCT-116
DMS-273 = test system: DMS-273
NCI-H23 = test system: NCI-H23
SR = test system: SR
SF-539 = test system: SF-539
A498 = test system: A498
SNB-19 = test system: SNB-19
UO-31 = test system: UO-31
HCC 2998 = test system: HCC 2998
K562 = test system: K562
CAKI-1 = test system: CAKI-1
HL-60 = test system: HL-60
KM12 = test system: KM12
Malme-3M = test system: Malme-3M
CCRF-CEM = test system: CCRF-CEM
LXFL 529 = test system: LXFL 529
A549 = test system: A549
OVCAR-3 = test system: OVCAR-3
DLD-1 = test system: DLD-1
RXF 393 = test system: RXF 393
RPMI-8226 = test system: RPMI-8226

O=C1NC2OC(CO)C(O)C(O)C2O1 (configuration not stated)
GI50 (HT-29): > 100 µM (inactive) | GI50 (OVCAR-5): > 100 µM (inactive) | GI50 (UACC-62): > 100 µM (inactive) | GI50 (SNB-78): > 100 µM (inactive) | GI50 (UACC-257): > 100 µM (inactive) | GI50 (SN12C): > 100 µM (inactive) | GI50 (SK-OV-3): > 100 µM (inactive) | GI50 (HOP-18): > 100 µM (inactive) | GI50 (MOLT-4): > 100 µM (inactive) | GI50 (LOX IMVI): > 100 µM (inactive) | GI50 (NCI-H522): > 100 µM (inactive) | GI50 (SF-268): > 100 µM (inactive) | GI50 (EKVX): > 100 µM (inactive) | GI50 (OVCAR-4): > 100 µM (inactive) | GI50 (OVCAR-8): > 100 µM (inactive) | GI50 (HOP-92): > 100 µM (inactive) | GI50 (M19-MEL): > 100 µM (inactive) | GI50 (SW-620): > 100 µM (inactive) | GI50 (SK-MEL-28): > 100 µM (inactive) | GI50 (U-251): > 100 µM (inactive) | GI50 (786-0): > 100 µM (inactive) | GI50 (IGROV-1): > 100 µM (inactive) | GI50 (SF-295): > 100 µM (inactive) | GI50 (KM-20L2): > 100 µM (inactive) | GI50 (COLO 205): > 100 µM (inactive) | GI50 (HCT-15): > 100 µM | GI50 (SK-MEL-5): > 100 µM (inactive) | GI50 (NCI-H460): > 100 µM (inactive) | GI50 (DMS-114): > 100 µM (inactive) | GI50 (SK-MEL-2): > 100 µM (inactive) | GI50 (M14): > 100 µM (inactive) | GI50 (ACHN): > 100 µM (inactive) | GI50 (TK-10): > 100 µM (inactive) | GI50 (SNB-75): > 100 µM (inactive) | GI50 (HOP-62): > 100 µM (inactive) | GI50 (HCT-116): > 100 µM (inactive) | GI50 (DMS-273): > 100 µM (inactive) | GI50 (NCI-H23): > 100 µM (inactive) | GI50 (SR): > 100 µM (inactive) | GI50 (SF-539): > 100 µM (inactive) | GI50 (A498): > 100 µM (inactive) | GI50 (SNB-19): > 100 µM (inactive) | GI50 (UO-31): > 100 µM (inactive) | GI50 (HCC 2998): > 100 µM (inactive) | GI50 (K562): > 100 µM (inactive) | GI50 (CAKI-1): > 100 µM (inactive) | GI50 (HL-60): > 100 µM (inactive) | GI50 (KM12): > 100 µM (inactive) | GI50 (Malme-3M): > 100 µM (inactive) | GI50 (CCRF-CEM): > 100 µM (inactive) | GI50 (LXFL 529): > 100 µM (inactive) | GI50 (A549): > 100 µM (inactive) | GI50 (OVCAR-3): > 100 µM (inactive) | GI50 (DLD-1): > 100 µM (inactive)

Nc1nc(SCc2ccccc2Cl)c2ncn(C3OC(CO)C(O)C3O)c2n1 (configuration not stated)
GI50 (HT-29): > 100 µM (inactive) | GI50 (OVCAR-5): > 100 µM (inactive) | GI50 (UACC-62): 72.3 µM (inactive) | GI50 (SN12C): > 100 µM (inactive) | GI50 (SK-OV-3): > 100 µM (inactive) | GI50 (HOP-18): > 100 µM (inactive) | GI50 (MOLT-4): 49.3 µM (inactive) | GI50 (LOX IMVI): 68.9 µM (inactive) | GI50 (NCI-H522): 30.1 µM (inactive) | GI50 (SF-268): 80.4 µM (inactive) | GI50 (OVCAR-4): 74.3 µM (inactive) | GI50 (OVCAR-8): 89.9 µM (inactive) | GI50 (RXF 393): 28.6 µM (inactive) | GI50 (HOP-92): 98.2 µM (inactive) | GI50 (M19-MEL): > 100 µM (inactive) | GI50 (SW-620): > 100 µM (inactive) | GI50 (SK-MEL-28): 69.2 µM (inactive) | GI50 (U-251): > 100 µM (inactive) | GI50 (786-0): > 100 µM (inactive) | GI50 (IGROV-1): > 100 µM (inactive) | GI50 (SF-295): 59.4 µM (inactive) | GI50 (KM-20L2): > 100 µM (inactive) | GI50 (COLO 205): > 100 µM (inactive) | GI50 (HCT-15): > 100 µM | GI50 (SK-MEL-5): 54.2 µM (inactive) | GI50 (NCI-H460): > 100 µM (inactive) | GI50 (DMS-114): 43.5 µM (inactive) | GI50 (SK-MEL-2): > 100 µM (inactive) | GI50 (M14): > 100 µM (inactive) | GI50 (ACHN): > 100 µM (inactive) | GI50 (TK-10): > 100 µM (inactive) | GI50 (SNB-75): 23.3 µM (inactive) | GI50 (HOP-62): > 100 µM (inactive) | GI50 (HCT-116): 42.4 µM (inactive) | GI50 (RPMI-8226): 56 µM (inactive) | GI50 (DMS-273): 65.6 µM (inactive) | GI50 (NCI-H23): > 100 µM (inactive) | GI50 (SR): 42.7 µM (inactive) | GI50 (SF-539): 89.1 µM (inactive) | GI50 (A498): 87.3 µM (inactive) | GI50 (SNB-19): 38.8 µM (inactive) | GI50 (UO-31): 29.1 µM (inactive) | GI50 (HCC 2998): > 100 µM (inactive) | GI50 (K562): 57 µM (inactive) | GI50 (CAKI-1): > 100 µM (inactive) | GI50 (HL-60): 50.5 µM (inactive) | GI50 (KM12): > 100 µM (inactive) | GI50 (Malme-3M): > 100 µM (inactive) | GI50 (CCRF-CEM): > 100 µM (inactive) | GI50 (LXFL 529): 50.9 µM (inactive) | GI50 (A549): 96.6 µM (inactive) | GI50 (OVCAR-3): 80.4 µM (inactive) | GI50 (DLD-1): > 100 µM (inactive)
